Reference: patent US20160031836A1, “BIOMARKER” (Novartis AG, priority 2013, published 2016)

How the values were obtained:
A375 xenograft = A375 xenograft mouse model, tumor growth; assay type: in vivo
SEM xenograft = SEM xenograft mouse model, tumor growth; assay type: in vivo; conditions: 10 mg/kg PO, qw
Protocol: (§1) A. Real-time PCR analysis of different human leukemia cell lines under HSP90 inhibitor treatment. Human leukemia cells were cultured and treated or untreated with AUY922 for 48 h. Then, total mRNA was collected and Real-time PCR was performed. B. Cell apoptosis analysis of MLL1 low expression or MLL1 high expression human leukemia cells with AUY922 treatment. Human leukemia cells were treated or untreated with AUY922 100 nM for 48 h. The apoptotic cells represented by 7AAD+AnnexinV+ were determined by FACS. C. The effect of HSP90 inhibitor in SEM and MOLM13 xenograft mouse model. Tumor growth rate of SEM and MOLM13 under HSP990 treatment were compared at different time points. […] SEM and MOLM13 cells were treated or untreated with AUY922 100 nM for 3 h. Total RNA were collected and microarray was performed.
(§2) Mice were maintained and handled in accordance with Novartis Biomedical Research Animal Care and Use Committee protocols and regulations. A375 with Tet-inducible shRNA against MLL1 were cultured in DMEM supplemented with 10% Tet-approved FBS. Mice (6-8 wk old, n=8) were inoculated s.c. with 1×10^6 cells in the right dorsal axillary region. Tumor volume was measured by calipering in two dimensions and calculated as (length×width2)/2. […] Data were expressed as mean±SEM, and differences were considered statistically significant at P<0.05 by Student t test.

MOLM13 xenograft = MOLM13 xenograft mouse model, tumor growth; assay type: in vivo; conditions: 10 mg/kg PO, qw
Protocol: as §1, §2

A375 cells = experiment: Cell colony formation assay with MLL1 knockdown, NVP-LGX818; assay type: cell-based, human; conditions: shMLL1
Protocol: Supplementary FIG. 5: Cell colony formation assay of HSF1 knockdown or MLL1 knockdown with NVP-LGX818 treatment in A375 cells 5000 shNTC, shHSF1 or shMLL1 A375 cells were seeded in six wells plate and were treated or untreated with Doxycycline for 5 days, then followed by compound treatment for 6 days.

MLL1−/− MEFs [1] = experiment: Cell apoptosis analysis (7AAD+AnnexinV+, FACS) in MEFs; assay type: cell-based, mouse; conditions: AUY922 100 nM, 48 h
Protocol: (§3) A. Cell colony formation assay of MLL1 knockdown with AUY922 treatment in A375 cells. 5000 shNTC or shMLL1 A375 cells were seeded in six wells plate and were treated or untreated with Doxycycline for 5 days, then followed by compound treatment for 6 days. B. Cell colony formation assay of MLL1 knockdown with AUY922 treatment in A2058 cells. 5000 shNTC or shMLL1 A2058 cells were seeded in six wells plate and were treated or untreated with Doxycycline for 5 days, then followed by compound treatment for 6 days. C. Western blotting analysis of tumor samples. Tumor samples were collected at the end of studies and western blotting analysis of MLL1 and GAPDH were performed. D. Real-time PCR analysis of tumor samples. Tumor samples were collected at the end of studies and total mRNA was collected and Real-time PCR was performed. E. The combinational effect of MLL1 knockdown and HSP90 inhibitor in A375 xenograft mouse model. Tumor growth rate of A375 cells expressing inducible control shRNA or shRNA against MLL1 under Doxycycline and/or HSP990 were compared at different time points. […] The percentage of S+G2M cells were determined by PI staining. […] The apoptotic cells represented by 7AAD+AnnexinV+ were determined by FACS. […] Relative cell growth was measured by CTG. […] The apoptotic cells represented by 7AAD+AnnexinV+ were determined by FACS.

MLL1+/+ MEFs [2] = experiment: as above; assay type: cell-based, mouse; conditions: AUY922 100 nM, 48 h
Protocol: as §3

A375, A2058 and HCT116 = experiment: Cell colony formation assay with MLL1 knockdown; assay type: cell-based, human; conditions: Doxycycline 5 days, compound 6 days
Protocol: A. Cell colony formation assay of MLL1 knockdown with AUY922 treatment in A375 cells. 5000 shNTC or shMLL1 A375 cells were seeded in six wells plate and were treated or untreated with Doxycycline for 5 days, then followed by compound treatment for 6 days. B. Cell colony formation assay of MLL1 knockdown with AUY922 treatment in A2058 cells. 5000 shNTC or shMLL1 A2058 cells were seeded in six wells plate and were treated or untreated with Doxycycline for 5 days, then followed by compound treatment for 6 days. C. Western blotting analysis of tumor samples. Tumor samples were collected at the end of studies and western blotting analysis of MLL1 and GAPDH were performed. D. Real-time PCR analysis of tumor samples. Tumor samples were collected at the end of studies and total mRNA was collected and Real-time PCR was performed. E. The combinational effect of MLL1 knockdown and HSP90 inhibitor in A375 xenograft mouse model. Tumor growth rate of A375 cells expressing inducible control shRNA or shRNA against MLL1 under Doxycycline and/or HSP990 were compared at different time points. […] The percentage of S+G2M cells were determined by PI staining. […] The apoptotic cells represented by 7AAD+AnnexinV+ were determined by FACS. […] Relative cell growth was measured by CTG. […] The apoptotic cells represented by 7AAD+AnnexinV+ were determined by FACS. […]

human primary BALL cells = experiment: Dose response in human primary BALL cells (CellTiter-Glo); assay type: cell-based; conditions: 48 h
Protocol: A. The percentage of human leukemia cells in bone marrow of recipient mice transplanted with human primary leukemia cells. The human cells represented by human CD45+ were determined by FACS. B. Real-time PCR analysis of MLL1 expression among different human primary leukemia cell. C. Dose response of AUY922 in human primary BALL cells. Human primary BALL cells were treated with DMSO or serial dilutions of AUY922 for 48 h. Relative cell growth was measured by CellTiter-Glo. D. JURKAT, SEM, RS(4,11) and MOLM13 were treated for 72 h with different doses of AUY922 and/or NVP-JAE067, inhibition of cell viability was measured using the CellTiter-Glo assay. E. Chalice software was used to calculate excess inhibition over Loewe additivity for each AUY922 and NVP-JAE067 dose combination.
To investigate whether MLL1 expression is different in primary human cancer cells, we examined the expression of MLL1 in human B acute lymphoblastic leukemia samples. The primary human BALL cells were transplanted into immune deficient mice and bone marrow cells were collected from recipient mice until blood tumor burden is higher than 70% by FACS analysis. […] We next evaluated the efficacy of AUY922 on those human leukemia cells. […] We next tested the combination effect of AUY922 and DOT1L inhibitor NVP-JAE067 on human leukemia cells. […] Taken together, those result indicated human leukemia cells with MLL1 low expression may be more sensitive to HSP90 inhibition and the combination of HSP90 inhibitor and DOT1L inhibitor may be a good strategy for human leukemia cells harboring MLL1 translocation.

[3] = system: binding of HSF1 to HSP70 or BAG3 promoter; experiment: ChIP with HSF1 antibody, quantitative real-time PCR; assay type: cell-based, human; conditions: A375 cells, AUY922 100 nM, one hour
Protocol: shHSF1 transduced A375 cells were treated with or without Doxycycline for 3 days and were further treated with AUY922 100 nM for 1 h. Chromatin was immunoprecipitated with anti-MLL1 antibody and amplified by quantitative real-time PCR using primers around HSE element of HSP70 (A) or BAG3 (B) gene promoter and MLL1 binding site of MESI1 (C) promoter.
To examine the recruitment of MLL1 to the HSF1-modulated gene promoter, we performed chromatin immunoprecipitation (ChIP) with A375 cells transduced with control or shMLL1 and treated or untreated with AUY922 for 1 h. Chromatin from those cells was sonicated to obtain fragments below 500 bp and immunoprecipitated using polyclonal against HSF1 and MLL1. Quantitative real-time PCR analysis was carried out with primer specific for the HSP70 and BAG3 encompassing the HSE element. MLL1 binding site of MESI1 was used as a control. […] In contrast, the bindings were not detected in A375 cells with inducible HSF1 knockdown (Supplement FIG. 3). A significant of MLL1 occupancy of the HSP70 and BAG3 gene promoter is also observed at one hour of AUY922 treatment (FIGS. 2C and D). In contrast, the binding of MLL1 to MESI promoter was not detected (FIG. 2E). […]

[4] = system: other leukemia cell lines; experiment: Cell proliferation by CellTiter-Glo, human leukemia cells; assay type: cell-based; conditions: 72 h
Protocol: (§4) Eight human leukemia cells with or without MLL1 translocation were treated with AUY922 for 72 h and cell proliferation rate were measured by CellTiter-Glo. IC95 were used to estimate the cell response to HSP90 inhibition. Supplementary Table. S1: 35 Genes were Identified as Modulators of Cell Response to HSP90 Inhibition by siRNA Screening

NOMO = experiment: as above; assay type: cell-based; conditions: 72 h
Protocol: as §4

MOLM13 = experiment: as above; assay type: cell-based; conditions: MOLM13, 72 h
Protocol: as §4

RS(4,11) = experiment: as above; assay type: cell-based; conditions: 72 h
Protocol: as §4

MLL1−/− MEFs [5] = experiment: Microscopic analysis and dose response (CTG) in MEFs; assay type: cell-based, mouse; conditions: after 48 h treatment
Protocol: as §3

MLL1+/+ MEFs [6] = experiment: as above; assay type: cell-based, mouse
Protocol: as §3

## COc1cccc(-c2cc(F)ccc2[C@H]2Cc3nc(N)nc(C)c3C(=O)N2)n1 [HSP990, (R)-2-amino-7-[4-fluoro-2-(6-methyoxy-pyridin-2-yl)-phenyl]-4-methyl-7,8-dihydro-6H-pyrido[4,3-d]pyrimidin-5-one]
A375 xenograft; HSF1 knockdown & HSP990 combination
  tumor growth outcome: tumor stasis
A375 xenograft; HSP990 alone, 10 mg/kg PO, qw
  inhibited tumor growth, T/C: 50 % T/C
SEM xenograft
  inhibited tumor growth, T/C: 30 % T/C
MOLM13 xenograft
  inhibited tumor growth, T/C: 60 % T/C

## COC(=O)N[C@@H](C)CNc1nccc(-c2cn(C(C)C)nc2-c2cc(Cl)cc(NS(C)(=O)=O)c2F)n1 [NVP-LGX818]
A375 cells
  combinational effect with MLL1 knockdown, colony formation: does not have a combinational effect

## CCNC(=O)c1noc(-c2cc(C(C)C)c(O)cc2O)c1-c1ccc(CN2CCOCC2)cc1 [AUY922, 5-(2,4-Dihydroxy-5-isopropyl-phenyl)-4-(4-morpholin-4-ylmethyl-phenyl)-isoxazole-3-carboxylic acid ethylamide]
MLL1−/− MEFs [1]
  cells induced apoptosis: more than 80%
MLL1+/+ MEFs [2]
  cells induced apoptosis: 30%
A375, A2058 and HCT116
  sensitivity in colony formation on induction of MLL1 shRNA: dramatically sensitivity
Human primary BALL cells; P1 leukemia cells with high MLL1 expression
  response to treatment (relative cell growth): didn't response
Human primary BALL cells; P4 leukemia cells with low MLL1 expression
  response to treatment (relative cell growth): good response
Human primary BALL cells; other two human leukemia samples
  response to treatment (relative cell growth): a certain response
[3]
  binding of HSF1 to HSP70 or BAG3 promoter (ChIP): increased about ten times
[4]
  IC95: about 1000 nM
NOMO
  IC95: about 100 nM
MOLM13
  IC95: about 100 nM
RS(4,11)
  IC95: about 100 nM
MLL1−/− MEFs [5]
  cells killed: more than 90%
MLL1+/+ MEFs [6]
  effect on proliferation / killing of cells: inhibits the proliferation rate of MEFs, but didn't kill those cells
